Laboratory results: patent US12352767B2, “Method of treating cognitive decline associated with neurological diseases based on a decrease in FLT4 expression or activity” (University of Virginia Patent Foundation, priority 2018, dated 2025)
Entries after “also recorded” stand apart in the source; their conditions may differ.

Assays:
[1] = system: brain parenchyma; experiment: Efflux of fluorescent tracers injected into the brain parenchyma; type: in vivo, mice; settings: 7 days after Visudyne/photoconversion, vs both control groups
Method: An incision was made in the skin to expose the skull and a hole was drilled at +1.5 mm in the anterior-posterior axis and −1.5 mm in the medial-lateral axis relative to bregma. Then, using a Hamilton syringe (coupled to a 33-gauge needle) placed at +2.5 mm in the dorsal-ventral axis (relative to bregma), 1 μL of either Alexa Fluor® 647 conjugated OVA (at 0.5 mg/mL), HiLyte™ Fluor 647 conjugated Aβ42 (at 0.05 μg/mL, AnaSpec, Inc.) or BODIPY™ FL conjugated low density lipoprotein (LDL) from human plasma (at 0.1 mg/mL, Thermo Fisher Scientific) in artificial CSF were injected at a rate of 0.2 μL/min into the brain parenchyma. […] After injecting, the syringe was left in place for additional 5 min to prevent back-flow.

[2] = system: brain/meningeal vasculature; experiment: Photoacoustic imaging of brain/meningeal blood flow and oxygenation; type: in vivo; settings: 5xFAD mice, 1 week after Visudyne/photoconversion
Description: Adult mice were maintained under anesthesia with 1.5% isoflurane and at a constant body temperature with the aid of a heating pad. A surgical incision was made in the scalp and the fascia was removed to expose the skull. One day prior to the imaging, the skull over the region of interest was thinned to the desired thickness (˜100 μm). Mice were then imaged by multi-parametric photoacoustic microscopy, which is capable of simultaneously image oxygen saturation of hemoglobin (sO2) and blood flow speed as described previously^50. Using the oxy-hemoglobin and deoxy-hemoglobin values, recorded using two nanosecond-pulsed lasers (532 and 559 nm), it is possible to compute the final sO2. Correlation analysis of adjacent A-line signals allows the quantification of blood flow speed within individual vessels. By segmenting major vessels within the region of interest, average values of the blood flow speed and sO2 were extracted for quantitative analysis.

In the case of verteporfin [Visudyne], the “levels of remaining tracers in brain parenchyma (Aβ42-HiLyte647, OVA-A647, LDL-BODIPY FL)” value ([1]; one hour after stereotaxic injection) is reported as “higher levels of remnants”, the “Aβ42-HiLyte647 area fraction in the injected brain hemisphere” value [1] is reported as “significantly higher level” and the “LDL-BODIPY FL area fraction in the injected brain hemisphere” value [1] is reported as “significantly higher level”. The “OVA-A647 area fraction in the injected brain hemisphere” value [1] was “significantly higher level”, the “blood flow in brain/meninges” value [2] was “no differences; also recorded: did not affect” and the “blood oxygenation in brain/meninges” value [2] was “no differences; also recorded: did not affect”.
